# Results as given in patent US9232796B2, “Herbicidal compositions comprising 4-amino-3-chloro-5-fluoro-6-(4-chloro-2-fluoro-3-methoxyphenyl) pyridine-2-carboxylic acid or a derivative thereof and acetyl-CoA carboxylase (ACCase) inhibitors” (DOW AGROSCIENCES LLC, priority 2012, dated 2016).
# Key:
# ECHCG = experiment: Example V (second) postemergence foliar-applied ternary mixtures, greenhouse, direct seeded rice weeds; format: in vivo, Echinochloa crus-galli (L.) Beauv.; conditions: 105 gae/ha
# Source text: Seeds or nutlets of the desired test plant species were planted in a soil matrix prepared by mixing a sandy loam or loam soil (e.g., 32 percent silt, 23 percent clay, and 45 percent sand, with a pH of about 6.5 and an organic matter content of about 1.9 percent) and calcareous grit in an 80 to 20 ratio. The soil matrix was contained in plastic pots with a volume of 1 quart and a surface area of 83.6 square centimeters (cm^2). When required to ensure good germination and healthy plants, a fungicide treatment and/or other chemical or physical treatment was applied. The plants were grown for 8-22 days in a greenhouse with an approximate 14 hr. photoperiod which was maintained at about 29° C. during the day and 26° C. during the night. Nutrients (Peters Excel® 15-5-15 5-Ca 2-Mg and iron chelate) were applied in the irrigation solution as needed and water was added on a regular basis. Supplemental lighting was provided with overhead metal halide 1000-Watt lamps as necessary. The plants were employed for testing when they reached the first through fourth true leaf stage.
# Treatments consisted of the benzyl ester of 4-amino-3-chloro-5-fluoro-6-(4-chloro-2-fluoro-3-methoxy-phenyl)pyridine-2-carboxylic acid (Compound A), formulated as an SC (suspension concentrate), an ACCase inhibitor, and a third herbicidal component, each applied alone and in ternary combination. Forms of compound A were applied on an acid equivalent basis.
# The ACCase inhibitor component was applied on an active ingredient basis and included cyhalofop-R-butyl formulated as Clincher® SF, fenoxaprop-p-ethyl formulated as RiceStar® HT, and profoxydim formulated as Aura® 20EC. Other herbicidal components were applied on an active ingredient or acid equivalent basis depending on the compound and included penoxsulam formulated as Grasp® SC, bentazon sodium formulated as Basagran®, triclopyr […] (TEA) salt formulated as Grandstand® R, bispyribac sodium formulated as Regiment® 80WP, imazamox ammonium formulated as Beyond®, benzobicyclon, quinclorac formulated as Facet® 75DF, glyphosate dimethylammonium (DMA) salt formulated as Durango® DMA, glufosinate ammonium formulated as Ignite® 280, fentrazamide formulated as an emulsifiable concentrate (EC), propyrisulfuron formulated as Zeta One®, and indanofan (technical grade material).
# (§1) Treatment requirements were calculated based upon the rates being tested, the concentration of active ingredient or acid equivalent in the formulation, and a 12 mL application volume at a rate of 187 L/ha.
# (§2) For treatments comprised of formulated compounds, measured amounts of compounds were placed individually in 25 mL glass vials and diluted in a volume of 1.25% (v/v) Agri-Dex® crop oil concentrate to obtain 12× stock solutions. […] Application solutions were prepared by adding an appropriate amount of each stock solution (e.g., 1 mL) and diluted to the appropriate final concentrations with the addition of 9 mL of an aqueous mixture of 1.25% (v/v) crop oil concentrate so that the final spray solutions contained 1.25% (v/v) crop oil concentrate.
# As required, additional water and/or 97:3 v/v acetone/DMSO was added to individual application solutions so that the final acetone and DMSO concentrations of the application solutions being compared were 8.1% and 0.25%, respectively.
# All stock solutions and applications solutions were visually inspected for compound compatibility prior to application. Spray solutions were applied to the plant material with an overhead Mandel track sprayer equipped with a 8002E nozzles calibrated to deliver 187 L/ha over an application area of 0.503 m^2 at a spray height of 18 inches (46 cm) above average plant canopy height. Control plants were sprayed in the same manner with the solvent blank.
# The treated plants and control plants were placed in a greenhouse as described above and watered by sub-irrigation to prevent wash-off of the test compounds. […]
# LEFCH = experiment: as above; format: in vivo, Leptochloa chinensis (L.) Nees
# Protocol: (§3) The treated plants and control plants were placed in a greenhouse as described above and watered by sub-irrigation to prevent wash-off of the test compounds. After approximately 3 weeks, the condition of the test plants as compared with that of the untreated plants was determined visually and scored on a scale of 0 to 100 percent where 0 corresponds to no injury or growth inhibition and 100 corresponds to complete kill.
# (§4) Colby's equation was used to determine the herbicidal effects expected from the mixtures (Colby, S. R. 1967. Calculation of the synergistic and antagonistic response of herbicide combinations. Weeds 15:20-22.).
# The following equation was used to calculate the expected activity of mixtures containing three active ingredients, A, B, and C: Expected=A+B+C−((A×B+A×C+B×C)/100)+(A×B×C/10000)
# ECHCO = experiment: Example I postemergence foliar-applied, greenhouse, direct seeded rice weeds; format: in vivo, Echinochloa colona (L.) Link
# Source text: (§5) Seeds or nutlets of the desired test plant species were planted in a soil matrix prepared by mixing a loam or sandy loam soil (e.g., 28.6 percent silt, 18.8 percent clay, and 52.6 percent sand, with a pH of about 5.8 and an organic matter content of about 1.8 percent) and calcareous grit in an 80 to 20 ratio. The soil matrix was contained in plastic pots with a volume of 1 quart and a surface area of 83.6 square centimeters (cm^2). When required to ensure good germination and healthy plants, a fungicide treatment and/or other chemical or physical treatment was applied. The plants were grown for 8-22 days in a greenhouse with an approximate 14 hr. photoperiod which was maintained at about 29° C. during the day and 26° C. during the night. Nutrients (Peters Excel® 15-5-15 5-Ca 2-Mg and iron chelate) were applied in the irrigation solution as needed and water was added on a regular basis. Supplemental lighting was provided with overhead metal halide 1000-Watt lamps as necessary. The plants were employed for testing when they reached the first through fourth true leaf stage.
# (§6) Treatments consisted of the acid or esters of 4-amino-3-chloro-5-fluoro-6-(4-chloro-2-fluoro-3-methoxy-phenyl)pyridine-2-carboxylic acid (Compound A), each formulated as an SC (suspension concentrate), and various herbicidal components alone and in combination.
# (§7) Other herbicidal components were applied on an acid equivalent (ae) or active ingredient (ai) basis and included acetyl coA carboxylase (ACCase)-inhibiting herbicides (cyclohexanedione and aryloxyphenoxypropionate chemical classes) cyhalofop-butyl formulated as Clincher® SF (285 gr ai/L EC), diclofop-methyl formulated as Hoelon® 3EC, fenoxaprop-p-ethyl+isoxadifen-ethyl formulated as RiceStar® HT (0.58 lb./gal EC), fenoxaprop-p-ethyl+mefenpyr diethyl formulated as Puma® IEC, metamifop formulated as Metamifop EC, haloxyfop-methyl formulated as Gallant Super®, fluazifop-p-butyl formulated as Fusilade® DX, quizalofop-p-ethyl formulated as Assure® II, profoxydim formulated as Aura® 20EC, clethodim applied as Intensity®, sethoxydim formulated as Poast®, and tralkoxydim formulated as Achieve®.
# as §1
# as §2, with “crop oil concentrated to obtain” for “crop oil concentrate to obtain”, “addition of 10 mL of” for “addition of 9 mL of”, “solutions contained 1.25+/−0.05% (v/v) crop” for “solutions contained 1.25% (v/v) crop”
# (§8) All stock solutions and applications solutions were visually inspected for compound compatibility prior to application. Spray solutions were applied to the plant material with an overhead Mandel track sprayer equipped with a 8002E nozzles calibrated to deliver 187 L/ha over an application area of 0.503 m^2 at a spray height of 18 to 20 inches (46 to 50 cm) above average plant canopy height. Control plants were sprayed in the same manner with the solvent blank.
# as §3, with “kill. […]” for “kill.”
# PHAMI = experiment: Example IV postemergence foliar-applied, greenhouse, cereal crops weeds; format: in vivo, Phalaris minor Retz.
# Protocol: (§9) Seeds of the desired test plant species were planted in Sun Gro MetroMix® 306 planting mixture, which typically has a pH of 6.0 to 6.8 and an organic matter content of about 30 percent, in plastic pots with a surface area of 103.2 square centimeters (cm^2). […] The plants were grown for 7-36 days in a greenhouse with an approximate 14 hour photoperiod which was maintained at about 18° C. during the day and about 17° C. during the night. Nutrients and water were added on a regular basis and supplemental lighting was provided with overhead metal halide 1000-Watt lamps as necessary. The plants were employed for testing when they reached the second or third true leaf stage.
# (§10) Treatments consisted of the benzyl ester of 4-amino-3-chloro-5-fluoro-6-(4-chloro-2-fluoro-3-methoxy-phenyl)pyridine-2-carboxylic acid (Compound A), formulated as an SC, a second cereal herbicide alone and then both in combination.
# (§11) Other herbicidal components were applied on an active ingredient basis and included acetyl-CoA carboxylase (ACCase)-inhibiting herbicides clodinafop-propargyl, fenoxaprop-P-ethyl, pinoxaden and tralkoxydim.
# (§12) Measured aliquots of benzyl ester of 4-amino-3-chloro-5-fluoro-6-(4-chloro-2-fluoro-3-methoxy-phenyl)pyridine-2-carboxylic acid (Compound A) were placed in 25 milliliter (mL) glass vials and diluted in a volume of 1.25% (v/v) Agri-Dex® crop oil concentrate to obtain stock solutions. Compound requirements are based upon a 12 mL application volume at a rate of 187 liters per hectare (L/ha). […] Formulated compounds were applied to the plant material with an overhead Mandel track sprayer equipped with an 8002E nozzle calibrated to deliver 187 L/ha over an application area of 0.503 square meters (m^2) at a spray height of 18 inches (46 cm) above average plant canopy. Control plants were sprayed in the same manner with the solvent blank.
# as §3, with “20-22 days,” for “approximately 3 weeks,”, “control” for “untreated”, “injury” for “injury or growth inhibition”
# as §4
# (§13) The following equation was used to calculate the expected activity of mixtures containing two active ingredients, A and B: Expected=A+B−(A×B/100)
# IPOHE = experiment: Example I postemergence foliar-applied, greenhouse, direct seeded rice weeds; format: in vivo, Ipomoea hederacea Jacq.
# Source text: as §5, §6, §7, §1
# as §2, with “crop oil concentrated to obtain” for “crop oil concentrate to obtain”, “addition of 10 mL of” for “addition of 9 mL of”, “solutions contained 1.25+/−0.05% (v/v) crop” for “solutions contained 1.25% (v/v) crop”
# as §8
# as §3, with “kill. […]” for “kill.”
# SCPJU = experiment: as above; format: in vivo, Schoenoplectus juncoides (Roxb.) Palla
# Source text: as §5, §6, §7, §1
# as §2, with “crop oil concentrated to obtain” for “crop oil concentrate to obtain”, “addition of 10 mL of” for “addition of 9 mL of”, “solutions contained 1.25+/−0.05% (v/v) crop” for “solutions contained 1.25% (v/v) crop”
# as §8
# as §3, with “kill. […]” for “kill.”
# KCHSC = experiment: Example IV postemergence foliar-applied, greenhouse, cereal crops weeds; format: in vivo, Kochia scoparia (L.) Schrad.
# Protocol: as §9, §10, §11, §12
# as §3, with “20-22 days,” for “approximately 3 weeks,”, “control” for “untreated”, “injury” for “injury or growth inhibition”
# as §4, §13
# APESV = experiment: as above; format: in vivo, Apera spica-venti (L.) Beauv.
# Protocol: as §9, §10, §11, §12
# as §3, with “20-22 days,” for “approximately 3 weeks,”, “control” for “untreated”, “injury” for “injury or growth inhibition”
# as §4, §13
smiles,measurement,setting,value
CNC.O=C(O)CNCP(=O)(O)O [Glyphosate DMA],Visual Weed Control (%) - 21 DAA ECHCG Obs,ECHCG,23%
same,Visual Weed Control (%) - 21 DAA LEFCH Obs,LEFCH; 420 gai/ha,45%
CCC1(CC2(c3cccc(Cl)c3)CO2)C(=O)c2ccccc2C1=O (centres unmarked) [Indanofan],Visual Weed Control (%) - 22 DAA LEFCH Obs,LEFCH; 72.5 gai/ha,30%
same,Visual Weed Control (%) - 22 DAA LEFCH Obs,LEFCH; 145 gai/ha,38%
"CCc1cc(C)cc(CC)c1-c1c(OC(=O)C(C)(C)C)n2n(c1=O)CCOCC2 [Pinoxaden, 8-(2,6-diethyl-4-methylphenyl)-1,2,4,5-tetrahydro-7-oxo-7H-pyrazolo[1,2-d][1,4,5]oxadiazepin-9-yl 2,2-dimethylpropanoate]",Visual Weed Control (%) - 21 DAA ECHCO Obs,ECHCO; 15 gai/ha,15%
same,Visual Weed Control (%) - 21 DAA ECHCO Obs,ECHCO; 30 gai/ha,85%
same,Visual Weed Control (%) - 21 DAA ECHCO Obs,ECHCO; 60 gai/ha,95%
same,Visual Weed Control (%) - 21 DAA PHAMI Obs,PHAMI; Pinoxaden 15 gai/ha,78%
same,Visual Weed Control (%) - 21 DAA PHAMI Obs,PHAMI; Pinoxaden 30 gai/ha,94%
same,Visual Weed Control (%) - 21 DAA IPOHE Obs,IPOHE; 15 gai/ha,10%
same,Visual Weed Control (%) - 21 DAA IPOHE Obs,IPOHE; 30 gai/ha,10%
same,Visual Weed Control (%) - 21 DAA IPOHE Obs,IPOHE; 60 gai/ha,0%
same,Visual Weed Control (%) - 21 DAA SCPJU Obs,SCPJU; 15 gai/ha,0%
same,Visual Weed Control (%) - 21 DAA SCPJU Obs,SCPJU; 30 gai/ha,0%
same,Visual Weed Control (%) - 21 DAA SCPJU Obs,SCPJU; 60 gai/ha,0%
same,Visual Weed Control (%) - 21 DAA KCHSC Obs,KCHSC; Pinoxaden 15 gai/ha,0%
same,Visual Weed Control (%) - 21 DAA KCHSC Obs,KCHSC; Pinoxaden 30 gai/ha,15%
"CCOC(=O)[C@@H](C)Oc1ccc(Oc2nc3ccc(Cl)cc3o2)cc1 [Fenoxaprop-P-ethyl, ethyl(2R)-2-[4-[(6-chloro-2-benzoxazolyl)oxy]phenoxy]propanoate]",Visual Weed Control (%) - 21 DAA PHAMI Obs,PHAMI; Fenoxaprop-P-ethyl 23 gai/ha,10%
same,Visual Weed Control (%) - 21 DAA PHAMI Obs,PHAMI; Fenoxaprop-P-ethyl 46 gai/ha,45%
same,Visual Weed Control (%) - 21 DAA APESV Obs,APESV; Fenoxaprop-P-ethyl 23 gai/ha,50%
same,Visual Weed Control (%) - 21 DAA APESV Obs,APESV; Fenoxaprop-P-ethyl 46 gai/ha,83%
same,Visual Weed Control (%) - 21 DAA KCHSC Obs,KCHSC; Fenoxaprop-P-ethyl 23 gai/ha,0%
same,Visual Weed Control (%) - 21 DAA KCHSC Obs,KCHSC; Fenoxaprop-P-ethyl 46 gai/ha,0%
